Values joined by “and” are separate entries in the source; they are usually repeats but may differ in a detail not shown here. Equal entries are not always repeated.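 In this assay, cells in 96-well plates receive the compound at five concentrations for 48 hours. Endpoints are linearly interpolated between the surrounding concentrations. GI50 = concentration required for 50% inhibition of growth. TGI marks complete inhibition of growth.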

Among the test systems are HCT-15 colon; M14 melanoma; HT29 colon; NCI-H226 lung; MCF7 breast; SF-295 CNS; OVCAR-3 ovarian; NCI-H23 lung; PC-3 prostate; ACHN renal; NCI/ADR-RES ovarian; SF-539 CNS; SNB-19 CNS; MDA-MB-435; SF-268 CNS; OVCAR-4 ovarian.
Common to all, as to assay: NCI-60 cell line screen, 48 h

Regarding `C[C@]12CCC(=O)C=C1CC[C@@H]1[C@@H]2CC[C@]2(C)C(=O)/C(=C/c3ccc([N+](=O)[O-])cc3)C[C@@H]12`, the TGI is over 100 µM with HCT-15 colon; over 100 µM in the test on M14 melanoma; over 100 µM in the test on HT29 colon; over 100 µM with NCI-H226 lung; 23.5 µM in the test on MCF7 breast; over 100 µM in the test on SF-295 CNS. Besides, the TGI is over 100 µM with OVCAR-3 ovarian; over 100 µM in the test on NCI-H23 lung; over 100 µM with PC-3 prostate; 19.9 µM in the test on ACHN renal; over 100 µM in the test with NCI/ADR-RES ovarian; over 100 µM with SF-539 CNS. Moreover, the TGI with SNB-19 CNS, with MDA-MB-435 and with SF-268 CNS was over 100 µM in each case.
Take `CCOC(=O)CCCN`: the TGI with HCT-15 colon, in the test on M14 melanoma, in the test on HT29 colon, in the test with OVCAR-4 ovarian, in the test with NCI-H226 lung and with MCF7 breast was over 100 µM throughout. Also, the TGI in the test with SF-295 CNS, in the test on OVCAR-3 ovarian, with NCI-H23 lung, with PC-3 prostate, in the test with ACHN renal and with NCI/ADR-RES ovarian was over 100 µM throughout. Moreover, the TGI in the test on SNB-19 CNS, in the test on MDA-MB-435 and with SF-268 CNS was over 100 µM each time.
For `c1ccc(C/C(=N\Nc2nc3ccccc3[nH]2)c2ccccn2)cc1`, the TGI was 15.6 µM with HCT-15 colon; 0.915 µM in the test on M14 melanoma; 5.23 µM in the test with HT29 colon; 10.4 µM with OVCAR-4 ovarian; 0.295 µM in the test on NCI-H226 lung; 0.607 µM with MCF7 breast. For the same molecule, the TGI with SF-295 CNS came to 6.78 µM; in the test with NCI-H23 lung, 13.5 µM; with PC-3 prostate, 0.503 µM; with ACHN renal it was 3.06 µM; in the test on NCI/ADR-RES ovarian, 0.0936 µM; in the test on SF-539 CNS, 0.741 µM. Further, the TGI in the test on SNB-19 CNS was found to be 17.9 µM; in the test on MDA-MB-435 it was 11.1 µM; in the test on SF-268 CNS it was 12 µM.
With `CCN1CC2=C(OC(N)=C(C#N)C2c2ccc(Cl)cc2)/C(=C/c2ccc(Cl)cc2)C1` (configuration not stated), the TGI in the test on HCT-15 colon was over 100 µM; in the test with M14 melanoma it was over 100 µM; with HT29 colon, over 100 µM; in the test with OVCAR-4 ovarian it was over 100 µM; with NCI-H226 lung it was 94.3 µM; in the test on MCF7 breast, over 100 µM. Besides, the TGI is over 100 µM in the test with SF-295 CNS; over 100 µM in the test with OVCAR-3 ovarian; 68.7 µM in the test with NCI-H23 lung; 98.9 µM with PC-3 prostate; 45.9 µM in the test on ACHN renal; over 100 µM in the test with NCI/ADR-RES ovarian. In addition, the TGI with SNB-19 CNS is 51 µM; in the test on MDA-MB-435, over 100 µM; in the test with SF-268 CNS, 49.6 µM.
With `O=C(O)CSC1=NCCN1`, the TGI with HCT-15 colon, with M14 melanoma, with HT29 colon, with OVCAR-4 ovarian, with MCF7 breast and in the test with SF-295 CNS was over 100 µM each time. The TGI in the test with OVCAR-3 ovarian, with NCI-H23 lung, with PC-3 prostate, in the test on ACHN renal, with NCI/ADR-RES ovarian and in the test on SF-539 CNS was over 100 µM each time. Also, the TGI in the test with SNB-19 CNS, in the test with MDA-MB-435 and in the test with SF-268 CNS was over 100 µM in each case.
As for `CCCCOC(=O)Nc1ccc(S(=O)(=O)Nc2c(Cl)cccc2Cl)cc1`, the TGI in the test with HCT-15 colon is 79.5 µM; with M14 melanoma, over 100 µM; in the test on HT29 colon, 32 µM; with OVCAR-4 ovarian it was 42.5 µM; with MCF7 breast, 92.4 µM; in the test with SF-295 CNS, over 100 µM. The TGI with OVCAR-3 ovarian was 73.5 µM; with NCI-H23 lung, over 100 µM; with PC-3 prostate, over 100 µM; in the test on ACHN renal, over 100 µM; in the test on NCI/ADR-RES ovarian, 65.8 µM; with SF-539 CNS it was 80 µM. The results for the TGI with SNB-19 CNS, with MDA-MB-435 and with SF-268 CNS were over 100 µM, 72.6 µM and over 100 µM, respectively.
As for `Cc1cc(C)c2c(-c3ccccc3)cc(=O)[nH]c2c1`, the TGI in the test on HCT-15 colon, in the test with M14 melanoma, with HT29 colon, in the test on OVCAR-4 ovarian, in the test with NCI-H226 lung and in the test on MCF7 breast was over 100 µM each time. Further, the TGI in the test with SF-295 CNS, in the test on OVCAR-3 ovarian, with NCI-H23 lung, with PC-3 prostate, with ACHN renal and in the test on NCI/ADR-RES ovarian was over 100 µM throughout. The TGI in the test with MDA-MB-435 and with SF-268 CNS was over 100 µM each time.
Take `CN(C)c1ccc(-c2c(C#N)c(-c3ccccc3)n(NS(=O)(=O)c3ccccc3)c(=O)c2C#N)cc1`: the TGI in the test with HCT-15 colon, in the test on M14 melanoma, in the test on HT29 colon, with OVCAR-4 ovarian, with NCI-H226 lung and with MCF7 breast was over 100 µM in each case. Besides, the TGI in the test with SF-295 CNS was over 100 µM; in the test with PC-3 prostate, over 100 µM; with ACHN renal, over 100 µM; in the test on NCI/ADR-RES ovarian, over 100 µM; in the test on SF-539 CNS, over 100 µM; in the test with SNB-19 CNS, 83.5 µM. The TGI with MDA-MB-435 and in the test on SF-268 CNS was over 100 µM in each case.
Take `CC(C)(C)c1ccc(O)c(C(O)c2ccccn2)c1` (configuration not stated): the TGI in the test on HCT-15 colon, in the test on HT29 colon, with NCI-H226 lung, in the test on MCF7 breast, in the test with SF-295 CNS and in the test on OVCAR-3 ovarian was over 100 µM throughout. The TGI in the test on NCI-H23 lung, in the test with PC-3 prostate, in the test with ACHN renal, in the test with NCI/ADR-RES ovarian, in the test on SF-539 CNS and in the test on SNB-19 CNS was over 100 µM throughout. For the same molecule, the TGI in the test with MDA-MB-435 and in the test with SF-268 CNS was over 100 µM each time.
Turning to `CC(C)(C)OC(=O)C1C(=O)NC(=O)CC1C(OCc1ccccc1)C(OCc1ccccc1)C(COCc1ccccc1)OCc1ccccc1` (configuration not stated), the TGI in the test with HCT-15 colon was over 100 µM; in the test with M14 melanoma, over 100 µM; in the test on HT29 colon it was over 75 µM; in the test with OVCAR-4 ovarian, over 100 µM; in the test on NCI-H226 lung, over 100 µM; with MCF7 breast, over 100 µM. Moreover, the TGI in the test with SF-295 CNS, in the test on NCI-H23 lung, in the test with PC-3 prostate, in the test with ACHN renal, in the test on NCI/ADR-RES ovarian and in the test on SF-539 CNS was over 100 µM in each case. In addition, the TGI in the test with SNB-19 CNS, in the test on MDA-MB-435 and with SF-268 CNS was over 100 µM in each case. For the same molecule, the GI50 was 50 µM and 15.3 µM in the test on MCF7 breast; > 100 µM and 28.9 µM with MDA-MB-435.
With `O=C1CC(Nc2ccccc2)c2c(Cl)sc(Cl)c21` (configuration not stated), the TGI with HCT-15 colon came to 2.36 µM; in the test on M14 melanoma, 3.4 µM; with HT29 colon it was 3.92 µM; in the test with OVCAR-4 ovarian it was 4.21 µM; with NCI-H226 lung it was 24 µM; in the test on MCF7 breast it was 5.21 µM. The TGI is 19.5 µM in the test with SF-295 CNS; 3.75 µM in the test on NCI-H23 lung; 3.06 µM in the test with PC-3 prostate; 2.41 µM with ACHN renal; 6.44 µM with NCI/ADR-RES ovarian; 2.24 µM with SF-539 CNS. In addition, the TGI in the test with SNB-19 CNS turned out to be 20.5 µM; in the test with MDA-MB-435, 3.17 µM.
Regarding `CN(C(=O)Cc1cc(Cl)c(Cl)cc1NC(=O)CCCN)[C@H]1CCCC[C@@H]1N1CCCC1`, the TGI was over 100 µM in the test with HCT-15 colon; 34 µM in the test with M14 melanoma; 47.7 µM in the test on HT29 colon; over 100 µM in the test on OVCAR-4 ovarian; over 100 µM in the test with NCI-H226 lung; 44.2 µM in the test with MCF7 breast. For the same molecule, the TGI in the test on SF-295 CNS, in the test on OVCAR-3 ovarian, in the test with NCI-H23 lung, in the test with PC-3 prostate, with ACHN renal and in the test with NCI/ADR-RES ovarian was over 100 µM throughout. Further, the TGI in the test on SNB-19 CNS was 45.4 µM; in the test with MDA-MB-435, 31.6 µM; with SF-268 CNS, 30.6 µM.
Turning to `CN(C)N1C(=C(C#N)C#N)C(c2ccccc2)CC1C#N` (configuration not stated), the TGI with HCT-15 colon, in the test on M14 melanoma, in the test with HT29 colon, with NCI-H226 lung, in the test on MCF7 breast and in the test on SF-295 CNS was over 100 µM throughout. In addition, the TGI in the test on NCI-H23 lung, with PC-3 prostate, in the test with ACHN renal, in the test with NCI/ADR-RES ovarian, in the test on SF-539 CNS and with SNB-19 CNS was over 100 µM each time. Further, the TGI in the test with MDA-MB-435 and in the test on SF-268 CNS was over 100 µM each time.
As to `O=c1[nH]c2c(C(F)(F)F)c(Cl)c(-c3ccccc3)nc2o1`, the TGI is over 100 µM in the test with HCT-15 colon; over 100 µM with M14 melanoma; 51.6 µM in the test with HT29 colon; 69.5 µM in the test on OVCAR-4 ovarian; over 100 µM in the test with NCI-H226 lung; over 100 µM in the test with MCF7 breast. In addition, the TGI in the test on SF-295 CNS was over 100 µM; in the test on OVCAR-3 ovarian, 65.8 µM; in the test with NCI-H23 lung, 52.1 µM; with PC-3 prostate it was 76.2 µM; in the test with ACHN renal it was over 100 µM; with NCI/ADR-RES ovarian, 67.2 µM. For the same molecule, the TGI in the test with SNB-19 CNS, in the test with MDA-MB-435 and in the test with SF-268 CNS was over 100 µM each time.

Values taken from PubChem BioAssay (NCI).
